What follows are molecules tested on HCV replicon (HCV 1b-377-neo replicon cells) (assay: HCV replicon cell line FRET assay). Conditions: Hepatitis C virus; HCV replicon cell line, FRET assay; read-out: Replicon Inhibition Range EC50.
Format: cell-based
With `O=C(Nc1ccc(C2S/C(=N\c3cccc(F)c3)N(Cc3ccco3)C2=O)cc1)[C@@H]1CCCN1C(=O)OCc1ccccc1` (stereo partly drawn) [Compound 2, 2S-{4-[2-(3-fluorophenylimino)-3-furan-2ylmethyl-4-oxo-thiazolidin-5yl]-phenylcarbamoyl}pyrrolidine-1-carboxylic acid benzyl ester] the EC50 was > 5000 nM. `O=C(Nc1ccc(C2S/C(=N\c3cccc(F)c3)N(Cc3ccccn3)C2=O)cc1)[C@@H]1CCCN1C(=O)OCc1ccccc1` (some centres unmarked) [Compound 3] was tested, and the EC50 was < 100 nM. `C[C@H](NC(=O)OCc1ccccc1)C(=O)Nc1ccc(C2S/C(=N\c3cccc(F)c3)N(Cc3ccccn3)C2=O)cc1` (some centres unmarked) [Compound 4] was tested, and the EC50 was < 100 nM. With `Cc1cnc(CN2C(=O)C(c3ccc(NC(=O)[C@@H]4CCCN4C(=O)OCc4ccccc4)cc3)S/C2=N\c2cccc(F)c2)cn1` (some centres unmarked) [Compound 5] the EC50 was < 100 nM. For `Cc1cnc(CN2C(=O)C(c3ccc(NC(=O)[C@H](C)NC(=O)OCc4ccccc4)cc3)S/C2=N\c2cccc(F)c2)cn1` (some centres unmarked) [Compound 6], the EC50 was < 100 nM. In the case of `O=C(Nc1ccc(C2S/C(=N\c3ccc(N4CCOCC4)cc3)N(Cc3ccco3)C2=O)cc1)[C@@H]1CCCN1C(=O)OCc1ccccc1` (some centres unmarked) [Compound 7], the EC50 is reported as < 100 nM. Molecule `O=C(Nc1ccc(C2S/C(=N\c3cccc(F)c3)N(Cc3ccco3)C2=O)cc1)[C@@H]1CCC(=O)N1C(=O)OCc1ccccc1` (some centres unmarked) [Compound 8] has an EC50 of 100 to 1000 nM. For `C[C@H](NC(=O)OCc1ccccc1)C(=O)Nc1ccc(C2S/C(=N\c3ccc(N4CCOCC4)cc3)N(Cc3ccco3)C2=O)cc1` (some centres unmarked) [Compound 10], the EC50 was < 100 nM. In the case of `O=C(Nc1ccc(C2S/C(=N\c3cccc4ccncc34)N(Cc3ccco3)C2=O)cc1)[C@@H]1CCCN1C(=O)OCc1ccccc1` (some centres unmarked) [Compound 11], the EC50 is reported as < 100 nM. `C[C@H](NC(=O)OCc1ccccc1)C(=O)Nc1ccc(C2S/C(=N\c3cccc4ccncc34)N(Cc3ccco3)C2=O)cc1` (some centres unmarked) [Compound 12] was tested, and the EC50 was < 100 nM. Molecule `COc1cccc(CN2C(=O)C(c3ccc(NC(=O)[C@@H]4CCCN4C(=O)OCc4ccccc4)cc3)S/C2=N\c2cccc(F)c2)c1` (some centres unmarked) [Compound 13] has an EC50 of 100 to 1000 nM. For `O=C(Nc1ccc(C2S/C(=N\c3cccc(F)c3)N(CC3CCCO3)C2=O)cc1)[C@@H]1CCCN1C(=O)OCc1ccccc1` (some centres unmarked) [Compound 14], the EC50 was < 100 nM. `O=C(Nc1ccc(C2S/C(=N\c3cccc(F)c3)N(Cc3cccnc3)C2=O)cc1)[C@@H]1CCCN1C(=O)OCc1ccccc1` (some centres unmarked) [Compound 15] was tested, and the EC50 was < 100 nM. Work on `O=C(Nc1ccc(C2S/C(=N\c3cccc(F)c3)N(Cc3ccccc3)C2=O)cc1)[C@@H]1CCCN1C(=O)OCc1ccccc1` (some centres unmarked) [Compound 16] yielded an EC50 of 100 to 1000 nM. With `O=C(Nc1ccc(C2S/C(=N\c3cccc(F)c3)N(CCOc3ccccc3)C2=O)cc1)[C@@H]1CCCN1C(=O)OCc1ccccc1` (some centres unmarked) [Compound 17] the EC50 was 1000 to 5000 nM. `O=C(Nc1ccc(C2S/C(=N\c3cccc(F)c3)N(Cc3ccc(OC(F)(F)F)cc3)C2=O)cc1)[C@@H]1CCCN1C(=O)OCc1ccccc1` (some centres unmarked) [Compound 19] was tested, and the EC50 was 1000 to 5000 nM. For `O=C(Nc1ccc(C2S/C(=N\c3cccc(F)c3)N(CCc3cccs3)C2=O)cc1)[C@@H]1CCCN1C(=O)OCc1ccccc1` (some centres unmarked) [Compound 20], the EC50 was 1000 to 5000 nM. Molecule `C[C@H](NC(=O)OCc1ccccc1)C(=O)Nc1ccc(C2S/C(=N\c3cccc(F)c3)N(CCOc3ccccc3)C2=O)cc1` (some centres unmarked) [Compound 21] has an EC50 of 1000 to 5000 nM. For `C[C@H](NC(=O)OCc1ccccc1)C(=O)Nc1ccc(C2S/C(=N\c3cccc(F)c3)N(Cc3ccc(OC(F)(F)F)cc3)C2=O)cc1` (some centres unmarked) [Compound 23], the EC50 was 1000 to 5000 nM. `C[C@H](NC(=O)OCc1ccccc1)C(=O)Nc1ccc(C2S/C(=N\c3cccc(F)c3)N(CCc3cccs3)C2=O)cc1` (some centres unmarked) [Compound 24] showed an EC50 of 100 to 1000 nM. With `COc1cccc(CN2C(=O)C(c3ccc(NC(=O)[C@H](C)NC(=O)OCc4ccccc4)cc3)S/C2=N\c2cccc(F)c2)c1` (some centres unmarked) [Compound 25] the EC50 was 100 to 1000 nM. `C[C@H](NC(=O)OCc1ccccc1)C(=O)Nc1ccc(C2S/C(=N\c3cccc(F)c3)N(CC3CCCO3)C2=O)cc1` (some centres unmarked) [Compound 26] showed an EC50 of 100 to 1000 nM. With `C[C@H](NC(=O)OCc1ccccc1)C(=O)Nc1ccc(C2S/C(=N\c3cccc(F)c3)N(Cc3cccnc3)C2=O)cc1` (some centres unmarked) [Compound 27] the EC50 was < 100 nM. For `COc1ccc(CCN2C(=O)C(c3ccc(NC(=O)[C@H](C)NC(=O)OCc4ccccc4)cc3)S/C2=N\c2cccc(F)c2)cc1OC` (some centres unmarked) [Compound 28], the EC50 was 1000 to 5000 nM. Molecule `C[C@H](NC(=O)OCc1ccccc1)C(=O)Nc1ccc(C2S/C(=N\c3cccc(F)c3)N(Cc3ccc(F)c(F)c3F)C2=O)cc1` (some centres unmarked) [Compound 29] has an EC50 of 1000 to 5000 nM. For `COc1ccc(CCN2C(=O)C(c3ccc(NC(=O)[C@@H]4CCCN4C(=O)OCc4ccccc4)cc3)S/C2=N\c2cccc(F)c2)cc1OC` (some centres unmarked) [Compound 30], the EC50 was 1000 to 5000 nM. In the case of `C[C@H](NC(=O)OCc1ccccc1)C(=O)Nc1cccc(C2S/C(=N\c3cccc(F)c3)N(Cc3ccco3)C2=O)c1` (some centres unmarked) [Compound 32], the EC50 is reported as 1000 to 5000 nM. Molecule `O=C(Nc1cccc(C2S/C(=N\c3cccc(F)c3)N(Cc3ccco3)C2=O)c1)[C@@H]1CCCN1C(=O)OCc1ccccc1` (some centres unmarked) [Compound 33] has an EC50 of 1000 to 5000 nM. Molecule `CCc1cccc(/N=C2\SC(c3ccc(NC(=O)[C@@H]4CCCN4C(=O)OCc4ccccc4)cc3)C(=O)N2Cc2ccco2)c1` (some centres unmarked) [Compound 36] has an EC50 of 1000 to 5000 nM. With `CCc1cccc(/N=C2\SC(c3ccc(NC(=O)[C@H](C)NC(=O)OCc4ccccc4)cc3)C(=O)N2Cc2ccco2)c1` (some centres unmarked) [Compound 37] the EC50 was 1000 to 5000 nM. With `O=C(Nc1ccc(C2S/C(=N\c3ccc4c(c3)CCC4)N(Cc3ccco3)C2=O)cc1)[C@@H]1CCCN1C(=O)OCc1ccccc1` (some centres unmarked) [Compound 38] the EC50 was 100 to 1000 nM. `C[C@H](NC(=O)OCc1ccccc1)C(=O)Nc1ccc(C2S/C(=N\c3ccc4c(c3)CCC4)N(Cc3ccco3)C2=O)cc1` (some centres unmarked) [Compound 39] was tested, and the EC50 was 1000 to 5000 nM. With `Cc1ccc(/N=C2\SC(c3ccc(NC(=O)[C@H](C)NC(=O)OCc4ccccc4)cc3)C(=O)N2Cc2ccco2)c(Cl)c1` (some centres unmarked) [Compound 41] the EC50 was 1000 to 5000 nM. With `O=C(Nc1ccc(C2S/C(=N\c3cc(F)cc(F)c3)N(Cc3ccco3)C2=O)cc1)[C@@H]1CCCN1C(=O)OCc1ccccc1` (some centres unmarked) [Compound 42] the EC50 was 100 to 1000 nM. For `C[C@H](NC(=O)OCc1ccccc1)C(=O)Nc1ccc(C2S/C(=N\c3cc(F)cc(F)c3)N(Cc3ccco3)C2=O)cc1` (some centres unmarked) [Compound 43], the EC50 was 100 to 1000 nM. `COc1ccc(/N=C2\SC(c3ccc(NC(=O)[C@@H]4CCCN4C(=O)OCc4ccccc4)cc3)C(=O)N2Cc2ccco2)cn1` (some centres unmarked) [Compound 44] was tested, and the EC50 was 100 to 1000 nM. `CCC(C)c1ccc(/N=C2\SC(c3ccc(NC(=O)[C@@H]4CCCN4C(=O)OCc4ccccc4)cc3)C(=O)N2Cc2ccco2)cc1` (some centres unmarked) [Compound 45] gave an EC50 of 100 to 1000 nM. With `CCC(C)c1ccc(/N=C2\SC(c3ccc(NC(=O)[C@H](C)NC(=O)OCc4ccccc4)cc3)C(=O)N2Cc2ccco2)cc1` (some centres unmarked) [Compound 46] the EC50 was 1000 to 5000 nM. `N#Cc1cccc(/N=C2\SC(c3ccc(NC(=O)[C@@H]4CCCN4C(=O)OCc4ccccc4)cc3)C(=O)N2Cc2ccco2)c1` (some centres unmarked) [Compound 47] was tested, and the EC50 was < 100 nM. For `COc1ccc(C(F)(F)F)cc1/N=C1\SC(c2ccc(NC(=O)[C@@H]3CCCN3C(=O)OCc3ccccc3)cc2)C(=O)N1Cc1ccco1` (some centres unmarked) [Compound 49], the EC50 was 100 to 1000 nM. With `COc1ccc(C(F)(F)F)cc1/N=C1\SC(c2ccc(NC(=O)[C@H](C)NC(=O)OCc3ccccc3)cc2)C(=O)N1Cc1ccco1` (some centres unmarked) [Compound 50] the EC50 was 100 to 1000 nM. `O=C(Nc1ccc(C2S/C(=N\c3ccc(F)c(Cl)c3)N(Cc3ccco3)C2=O)cc1)[C@@H]1CCCN1C(=O)OCc1ccccc1` (some centres unmarked) [Compound 51] showed an EC50 of 1000 to 5000 nM. With `C[C@H](NC(=O)OCc1ccccc1)C(=O)Nc1ccc(C2S/C(=N\c3ccc(F)c(Cl)c3)N(Cc3ccco3)C2=O)cc1` (some centres unmarked) [Compound 52] the EC50 was 1000 to 5000 nM. Molecule `O=C(Nc1ccc(C2S/C(=N\c3cccc(Cl)c3)N(Cc3ccco3)C2=O)cc1)[C@@H]1CCCN1C(=O)OCc1ccccc1` (some centres unmarked) [Compound 53] has an EC50 of 100 to 1000 nM. Molecule `C[C@H](NC(=O)OCc1ccccc1)C(=O)Nc1ccc(C2S/C(=N\c3cccc(Cl)c3)N(Cc3ccco3)C2=O)cc1` (some centres unmarked) [Compound 54] has an EC50 of 100 to 1000 nM. With `O=C(Nc1ccc(C2S/C(=N\c3cccc(OC(F)(F)F)c3)N(Cc3ccco3)C2=O)cc1)[C@@H]1CCCN1C(=O)OCc1ccccc1` (some centres unmarked) [Compound 55] the EC50 was 100 to 1000 nM. Work on `C[C@H](NC(=O)OCc1ccccc1)C(=O)Nc1ccc(C2S/C(=N\c3cccc(OC(F)(F)F)c3)N(Cc3ccco3)C2=O)cc1` (some centres unmarked) [Compound 56] yielded an EC50 of 100 to 1000 nM. For `Cc1cc(F)ccc1/N=C1\SC(c2ccc(NC(=O)[C@@H]3CCCN3C(=O)OCc3ccccc3)cc2)C(=O)N1Cc1ccco1` (some centres unmarked) [Compound 57], the EC50 was 1000 to 5000 nM. Molecule `Cc1cc(F)ccc1/N=C1\SC(c2ccc(NC(=O)[C@H](C)NC(=O)OCc3ccccc3)cc2)C(=O)N1Cc1ccco1` (some centres unmarked) [Compound 58] has an EC50 of 1000 to 5000 nM. Work on `O=C(Nc1ccc(C2S/C(=N\c3ccc(F)cc3Cl)N(Cc3ccco3)C2=O)cc1)[C@@H]1CCCN1C(=O)OCc1ccccc1` (some centres unmarked) [Compound 59] yielded an EC50 of 1000 to 5000 nM. `C[C@H](NC(=O)OCc1ccccc1)C(=O)Nc1ccc(C2S/C(=N\c3ccc(F)cc3Cl)N(Cc3ccco3)C2=O)cc1` (some centres unmarked) [Compound 60] gave an EC50 of 1000 to 5000 nM. For `C[C@H](NC(=O)OCc1ccccc1)C(=O)Nc1ccc(C2S/C(=N\c3ccc(C(F)(F)F)cc3)N(Cc3ccco3)C2=O)cc1` (some centres unmarked) [Compound 62], the EC50 was 1000 to 5000 nM. For `O=C(Nc1ccc(C2S/C(=N\c3ccc4c(c3)OCCO4)N(Cc3ccco3)C2=O)cc1)[C@@H]1CCCN1C(=O)OCc1ccccc1` (some centres unmarked) [Compound 63], the EC50 was < 100 nM. `C[C@H](NC(=O)OCc1ccccc1)C(=O)Nc1ccc(C2S/C(=N\c3ccc4c(c3)OCCO4)N(Cc3ccco3)C2=O)cc1` (some centres unmarked) [Compound 64] was tested, and the EC50 was < 100 nM. `COc1ccc(/N=C2\SC(c3ccc(NC(=O)[C@@H]4CCCN4C(=O)OCc4ccccc4)cc3)C(=O)N2Cc2ccco2)cc1F` (some centres unmarked) [Compound 65] was tested, and the EC50 was < 100 nM. Work on `COc1ccc(/N=C2\SC(c3ccc(NC(=O)[C@H](C)NC(=O)OCc4ccccc4)cc3)C(=O)N2Cc2ccco2)cc1F` (some centres unmarked) [Compound 66] yielded an EC50 of 100 to 1000 nM. For `O=C(Nc1ccc(C2S/C(=N\c3ccc(F)c(C(F)(F)F)c3)N(Cc3ccco3)C2=O)cc1)[C@@H]1CCCN1C(=O)OCc1ccccc1` (some centres unmarked) [Compound 67], the EC50 was 1000 to 5000 nM. With `C[C@H](NC(=O)OCc1ccccc1)C(=O)Nc1ccc(C2S/C(=N\c3ccc(F)c(C(F)(F)F)c3)N(Cc3ccco3)C2=O)cc1` (some centres unmarked) [Compound 68] the EC50 was 1000 to 5000 nM. In the case of `Cc1cnc(CN2C(=O)C(c3ccc(NC(=O)[C@H](C)NC(=O)OCc4ccccc4)cc3)S/C2=N\c2ccc(N3CCOCC3)cc2)cn1` (some centres unmarked) [Compound 69], the EC50 is reported as < 100 nM.

— patent US20050069522A1, “Combination pharmaceutical agents as inhibitors of HCV replication” (priority 2002, published 2005)
